Assay [1] deals with rat peritoneal macrophages. Briefly: Respiratory burst (hydrogen peroxide generation), rat peritoneal macrophages. In kind it is cell-based. The note with it: alone and in response to PMA 10 ng/ml; 4 hours exposure. The method, then: The respiratory burst of leukocytes (macrophages and polymorphonuclear neutrophils) is one component of the mediator system used to kill bacteria. As with phagocytosis, the level of this respiratory burst activity in resident macrophages is low. […] Studies were conducted to assess the effect of in vitro exposure of murine or rat peritoneal macrophages and human peripheral blood mononuclear cells (PBMC) to various concentrations of AII on the capacity to generate hydrogen peroxide via the respiratory burst system. For the human studies, five different donors were examined.
The murine or rat peritoneal cells were harvested by lavage with 5-15 ml of cold PBS with 0.5% bovine serum albumin. The human PBMC were harvested by venipuncture from normal human volunteers and isolated from peripheral blood by Ficoll Hypaque density centrifugation. After isolation, the cells were resuspended at 1×10^6 cells/ml and placed at 100 μl per well into 96 well plates. The cells were incubated with various concentrations of AII or AII analogues for 4 hours at 37° C. The cells were then preloaded with a fluorescent probe for hydrogen peroxide, 2,7 dichlorofluorescein acetate, which is nonfluorescent in the absence of hydrogen peroxide. […] One hour after stimulation the level of fluorescence produced was measured on a Cytofluor 2350 multiwell fluorometer.

For assay [2], the system named is murine HPC. Briefly: Murine HPC colony formation in the absence of colony stimulating factors. In kind it is cell-based, C57B1/6 mice. The following applies: 14 days. The method, then: HPC were harvested from C57B1/6 mice by immunomagnetic affinity chromatography and placed in semi-solid cultures with optimal growth medium in the absence of colony stimulating factors. At various times after initiation of culture, the formation of colonies and the size of the colonies (number of cells/colony) was assessed microscopically.
Female C57B1/6 mice were purchased from Simonson and used as a source of bone marrow cells in this study. The bone marrow was harvested from the femur and tibia of mice by flushing with phosphate buffered saline (PBS), pH 7.4, containing 2% fetal bovine serum (FBS) with a 21-gauge needle. The eluant from the flushing was centrifuged and the pellet was resuspended at 4×10^7 nucleated cells/ml in PBS containing PBS containing 2% FBS and 5% normal rat serum.
The reagents for immunomagnetic labeling were purchased from Stem Cell Technologies, Inc. (Vancouver, BC). Biotin-labeled monoclonal antibodies to the following murine lineage-specific cell surface antigens were included in a cocktail for HPC enrichment and used according to the manufacturer's instructions: CD5 (Ly-1), CD45-R (B220), CD11b (Mac-1), Myeloid Differentiation Antigen (Gr-1) and Erythroid Cells (TER 119) Ten μl of antibody cocktail was added to the bone marrow, mixed and allowed to incubate at 4° C. for 15 minutes. […]

For assay [3], the system named is Human PBMC. Briefly: Proliferation of human PBMC, 3H-thymidine incorporation with or without pokeweed mitogen. Format: cell-based. The following applies: for Stimulation Index (SI): stimulated counts / counts without mitogen. The method, then:
Upon stimulation of lymphocytes with mitogen or antigen, these cells undergo blastogenesis and proliferation. In the absence of such stimuli, proliferation is seldom observed. One method to measure cellular proliferation in a short term assay is via measurement of the amount of the nucleotide thymidine that is incorporated into newly synthesized DNA. The effect of AII on the proliferation of human PBMC in the presence and absence of pokeweed mitogen (“PWM”) was assessed.
Human PBMC were collected from normal volunteers and isolated via Ficoll Hypaque (Sigma Chemical, St. Louis) density centrifugation. After isolation of the buffy coat, the cells were washed 3× to remove the Ficoll Hypaque, counted in trypan blue (0.01%) and resuspended at a concentration of 1×10^6 cells/ml in RPMI 1640 containing 10% fetal calf serum and antibiotics. A 100 μl aliquot of cells was added to each well. Thereafter, various concentrations (0.1 to 1000 μg/ml final concentration) of AII in RPMI 1640 containing 10% FCS and antibiotics were added to various wells in triplicate. To the appropriate wells, PWM (20 μg/ml final concentration) was added. These plates were incubated at 37° C. in 5% CO2 for 48 hours. Subsequently, 0.5 μCi of ^3H-thymidine was added to each well, which were incubated at 37° C. for an additional 24 hours prior to harvest by a multiwell automated sample harvester (Skatron) onto glass fiber filters. These filters were dried, placed in scintillation fluid and the amount of thymidine incorporated was determined by beta counting.

Consider “Asp-Arg-Val-Tyr-Ile-His-Pro-Phe [AII, known pressor agent, commercially available]”, for which the “ability to generate hydrogen peroxide (respiratory burst)” value in assay [1] is reported as “increased the ability of leukocytes to generate hydrogen peroxide”. Besides, the “HPC colony size / HPC proliferation” value in assay [2] is “HPC colony size increases proportionately”. The “Stimulation Index (SI)” value in assay [3] (AII Concentration 0.1, Experiment 1 (donor 1)) was 3.54; in assay [3] (AII Concentration 0.1, Experiment 2 (donor 2)), 38.13; in assay [3] (AII Concentration 1, Experiment 1 (donor 1)) it was 5.88; in assay [3] (AII Concentration 1, Experiment 2 (donor 2)) it was 62.42; in assay [3] (AII Concentration 10, Experiment 1 (donor 1)), 5.34; in assay [3] (AII Concentration 10, Experiment 2 (donor 2)) it was 75.88. In addition, the “Stimulation Index (SI)” value in assay [3] (AII Concentration 100, Experiment 1 (donor 1)) worked out at 11.41; in assay [3] (AII Concentration 100, Experiment 2 (donor 2)), 69.39; in assay [3] (AII Concentration 1000, Experiment 1 (donor 1)), 15.48; in assay [3] (AII Concentration 1000, Experiment 2 (donor 2)), 89.63. For the same substance, the “cpm 3H-Thymidine Incorporated” value was found to be 1329.0 cpm in assay [3] (AII Concentration 0.1, PWM, Experiment 1 (donor 1)); 2135.0 cpm in assay [3] (AII Concentration 0.1, PWM, Experiment 2 (donor 2)); 1411.2 cpm in assay [3] (AII Concentration 1, PWM, Experiment 1 (donor 1)); 2996.0 cpm in assay [3] (AII Concentration 1, PWM, Experiment 2 (donor 2)); 1427.0 cpm in assay [3] (AII Concentration 10, PWM, Experiment 1 (donor 1)); 3946.0 cpm in assay [3] (AII Concentration 10, PWM, Experiment 2 (donor 2)). Also, the “cpm 3H-Thymidine Incorporated” value is on record as 1552.1 cpm in assay [3] (AII Concentration 100, PWM, Experiment 1 (donor 1)); 3747.0 cpm in assay [3] (AII Concentration 100, PWM, Experiment 2 (donor 2)); 1551.5 cpm in assay [3] (AII Concentration 1000, PWM, Experiment 1 (donor 1)); 4302.0 cpm in assay [3] (AII Concentration 1000, PWM, Experiment 2 (donor 2)). Further, the “thymidine incorporated in response to PWM” value in assay [3] (PWM 20 μg/ml, two donors) is recorded as “increase the amount of thymidine incorporated”. Also, in assay [3] (absence of mitogen), the thymidine incorporation result was “no increase in thymidine incorporation”.

The values are drawn from patent publication US7744927B2, “Methods of promoting hematopoietic and mesenchymal cell proliferation and differentiation” (University of Southern California, priority 1997, dated 2010).
